In patent publication US10865188B2, “Dibenzo azepine compounds and their use in the treatment of otic diseases and disorders” (Pipeline Therapeutics, Inc., priority 2015, dated 2020):
Where two headings read alike, the source gives them in different places.

Legend:
Atoh1 = assay: Human neural stem cell assay, Atoh1 gene expression (real-time PCR); assay type: cell-based; settings: human neural stem cells, 7 point CRC, read-out: hNSC Atoh1 EC50
Protocol: (§1) Neural stem cells (NSC) were derived from embryonic stem cells using a published protocol (Yuan et al., Mar. 2, 2011, PLoS ONE, 6(3):e17540). Cells were sorted and characterized at passage 3 and were expanded. Cells were then frozen at passage 5. Cells were maintained in NSC media (DMEM/F12, N2 (1×), B27(1×) (Invitrogen), and Pen/Strep (1×) (Life Technologies) with 20 ng/ml bFGF (BD Bioscience/Corning)). On day 1, cells were plated in 96 well plates that have been previously coated with poly-ornithin and laminin, 60,000 cells/well in 100 μl of media. On day 2, spent media was removed, and 180 μl of fresh media was added to the cells. Later that same day (day 2), cells were treated with 20 μl of NSC media containing test compounds (7 point CRC). On day 3, spent media was removed and 140 μl of RLT/bME was added to the cells. RNA was extracted using the QiaCube (Qiagen®, Germantown, Md., USA) using the total RNA extraction+DNAse protocol. RNA was then reverse-transcribed to cDNA using iScript (Bio-Rad, Hercules, Calif., USA). cDNA was then used for real-time PCR analysis using iTaq Sybergreen (BioRad). Expression of Atoh1, Hes5, Hes1, Myosin7a genes was evaluated using CFX96 or CFX384 (Bio-Rad). HPRT1 was used as a reference gene. Analysis was done using Microsoft® Excel® and CBIS (ChemInnovation Software, Inc., San Diego, Calif., USA). […]

HES5 = assay: Human neural stem cell assay, Hes5 gene expression (real-time PCR); assay type: cell-based; settings: human neural stem cells, 7 point CRC, read-out: hNSC HES5 IC50
Protocol: as §1

mice = assay: Auditory brainstem response (ABR) hearing threshold; assay type: in vivo; settings: formulations of Examples 3(c) and 3(d) (2% w/v crystalline, poloxamer 407)
Protocol: Surgery was performed on naïve mice or mice with noise or pharmacologically-damaged ears. The animals were anesthetized with isoflurane and an 8 mm retroauricular incision was made to the lower caudal edge of the pinna. The skin was retracted and the fatty tissue was blunt dissected away from where the facial nerve and muscle come together. The muscle was retracted to reveal an area in the tympanic bulla where the bone was thin. A 30 g needle was used to drill a hole in the exposed thin portion of the otic bulla. A Hamilton syringe equipped with a 32 g blunt needle was inserted into the opening of the otic bulla. The drug formulation was delivered by injection and the needle removed. Wound closure was made with tissue glue.
Naïve mice or mice at various times after either noise or pharmacological deafening were anesthetized with ketamine/xylazine/acepromazine and the auditory brainstem response was determined in both ears using a Tucker Davis (Alachua, Fla.) RZ6 apparatus. The mice were exposed to clicks or pure tones of 4, 8, 16, 24 and 32 kHz at 90-10 dB in 10 dB descending steps and the hearing threshold was determined.

[1] = Guinea pig PK after transtympanic delivery (perilymph and cochlea, LC/MS/MS); assay type: in vivo; settings: for concentration at 1 day / concentration at 7 day / concentration at 14 day / concentration at 28 day / concentration at 42 day / concentration at 56 day: male, Hartley, other: transtympanic, 30 μL, 30 μL transtympanic; for concentration at 1 day: Day 1, LLOQ = 0.08 μM; for concentration at 7 day: Day 7, LLOQ = 0.08 μM; for concentration at 14 day: Day 14, LLOQ = 0.08 μM; for concentration at 28 day: Day 28, LLOQ = 0.08 μM; for concentration at 42 day: Day 42, LLOQ = 0.08 μM; for concentration at 56 day: Day 56, LLOQ = 0.08 μM
Description: Male Hartley guinea pigs (300-350 g) were anesthetized with ketamine and xylazine. Thirty microliters of an aqueous pharmaceutical composition of the instant embodiments was delivered transtympanically to deposit the drug to the round window membrane. Delivery was unilateral. The animals were placed in a warm chamber in a lateral recumbent position keeping the dosed ear side up until they recover from anesthesia.
At various timepoints after administration, the animals were euthanized by CO2 inhalation. Blood and CSF were collected and stored at −80° C. The animals were decapitated, the temporal bones removed and the bulla opened to expose the otic capsule. Ipsilateral and contralateral perilymph were collected from the apex using a microcapillary tube. The ipsilateral cochlea was removed from the otic capsule and stored at −80° C. All tissues collected were analyzed using LC/MS/MS for test compound concentration as follows. Analytical standards were prepared by spiking known concentrations of the test compound stock solutions into matrices such as plasma or artificial CSF. Fixed amounts of tissues collected and spiked standards were precipitated with acetonitrile containing buspirone as an internal standard. The precipitated samples were centrifuged at 4000 g for 10 minutes at 4° C. The supernatants were analyzed using LC-MS/MS. The LC-MS/MS system was set up using the AB Sciex 4000 Qtrap (AB Sciex, Framingham, Mass.) equipped with Agilent 1200 series HPLC and CTC PAL Autosampler (Agilent Technologies, Santa Clara, Calif.).
Liquid compositions described herein were evaluated using the method described in Part E of the Biological Function section provided above. The liquid compositions prepared as described in Example 5(a)-5(d) were each drawn into a 1 mL syringe. Using the filled 1 mL syringe, the liquid composition was back-filled at 5° C. into a 100 μL Hamilton syringe adapted with 28 gauge needle. The Hamilton syringe was then allowed to warm to room temperature.
Male Hartley guinea pigs (300-350 g) were anesthetized with ketamine and xylazine. Thirty microliters of the above liquid composition were delivered transtympanically to deposit the drug to the round window membrane. The delivery was unilateral. The animals were placed in a warm chamber in a lateral recumbent position keeping the dosed ear side up until they recovered from anesthesia.
At various timepoints after administration, the animals were euthanized by CO2 inhalation. Blood and cerebrospinal fluid were collected and stored at −80° C. The animals were decapitated, the temporal bones removed and the bulla were opened to expose the otic capsule. Ipsilateral and contralateral perilymph were collected from the apex using a microcapillary tube. The ipsilateral cochlea was removed from the otic capsule and was stored at −80° C. All tissues collected were analyzed using LC/MS/MS as described in Part E of the Biological Function section above.
The concentrations of Compound I and Compound II were measured using LC/MS/MS in both the perilymph fluid and the cochlea tissue after a transtympanic injection of an instant formulation of either the crystalline form or the amorphous form at various time points. […] Concentration of the instant compounds in the perilymph and/or cochlea tissue was above the human NSC EC50 for Atoh1, an indicator that the subject compounds may be efficacious in hair cell regeneration and hearing restoration in human. […] Table 3 below lists the results for the studies using aqueous formulations of crystalline Compound I while Table 4 below lists those for aqueous formulations of crystalline Compound II. The results for aqueous formulations of crystalline Compound I are also graphically shown in FIG. 5A and FIG. 5B while the results for aqueous formulations of crystalline Compound II are graphically shown in FIG. 6A and FIG. 6B.

[2] = cochlea, Amorphous form (Example 5(d)), read-out: Cochlea Average concentration
[3] = cochlea, Crystalline form (Example 5(c)), read-out: Cochlea Average concentration
[4] = perilymph, Amorphous form (Example 5(d)), read-out: perilymph Average concentration
[5] = perilymph, Crystalline form (Example 5(c)), read-out: Perilymph Average concentration

CN1C(=O)[C@@H](NC(=O)[C@](C)(F)C(=O)NCC(F)(F)C(F)(F)F)c2ccccc2-c2ccccc21 [Compound II, (2R)-2-fluoro-2-methyl-N—[(S)-5-methyl-6-oxo-6,7-dihydro-5H-dibenzo[b,d]azepin-7-yl]-N′-(2,2,3,3,3-pentafluoropropyl)malonamide]
EC50 (Atoh1): 23 nM | IC50 (HES5): 23 nM | ABR Threshold Improvement (mice; 16 kHz): 8 dB | ABR Threshold Improvement (mice; 24 kHz): 11 dB | ABR Threshold Improvement (mice; 32 kHz): 7 dB | concentration in the perilymph and the cochlea compared with the human NSC EC50 for Atoh1 ([1]; dosed as the amorphous form, transtympanic): above the human NSC EC50 for Atoh1 at 1 day and 7 days | concentration in the perilymph and the cochlea compared with the human NSC EC50 for Atoh1 ([1]; dosed as the crystalline form, transtympanic): above the human NSC EC50 Atoh1 from day 1 to day 42 | concentration at 1 day [1, 2]: 829 µM | concentration at 7 day [1, 2]: 18.1 µM | concentration at 14 day [1, 2]: 0 µM | concentration at 28 day [1, 2]: 0 µM | concentration at 1 day [1, 3]: 5280 µM | concentration at 7 day [1, 3]: 46.1 µM | concentration at 14 day [1, 3]: 222 µM | concentration at 28 day [1, 3]: 7.6 µM | concentration at 42 day [1, 3]: 0.6 µM | concentration at 56 day [1, 3]: 0 nM | concentration at 1 day [1, 4]: 159 µM | concentration at 7 day [1, 4]: 178 µM | concentration at 14 day [1, 4]: 0 µM | concentration at 28 day [1, 4]: 0 µM | concentration at 1 day [1, 5]: 502 µM | concentration at 7 day [1, 5]: 26 µM | concentration at 14 day [1, 5]: 26 µM | concentration at 28 day [1, 5]: 2.2 µM | concentration at 42 day [1, 5]: 0.3 µM | concentration at 56 day [1, 5]: 0 nM | exposure to the inner ear, crystalline formulation versus respective amorphous formulation ([1]; transtympanic, formulations of Example 5(a)-5(d)): longer exposure
